Assay results reported in ChEMBL document CHEMBL1201862, “PubChem BioAssay data set” (2004).
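A five-concentration, 48-hour dose response in 96-well plates underlies each endpoint, interpolated linearly between surrounding concentrations. GI50 marks 50% less growth.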 The source made the active and inactive calls. No stated cut-off is given here; in the data, active = GI50 up to about 1.1 µM and inactive = higher.

Columns and labels:
Assay in all cases: DTP human tumour cell line panel, 48 h
[1] = tested on: 786-0
[2] = tested on: SK-MEL-5
[3] = tested on: Malme-3M
[4] = tested on: Hs-578T
[5] = tested on: LOX IMVI
[6] = tested on: CAKI-1
[7] = tested on: NCI-H522
[8] = tested on: HCT-15
[9] = tested on: EKVX
[10] = tested on: OVCAR-3
[11] = tested on: HOP-62
[12] = tested on: UACC-62
[13] = tested on: NCI-H226
[14] = tested on: IGROV-1
[15] = tested on: SF-295
[16] = tested on: M14
[17] = tested on: MDA-N
[18] = tested on: UACC-257
[19] = tested on: OVCAR-4
[20] = tested on: OVCAR-5

Row | SMILES | GI50 [1] | GI50 [2] | GI50 [3] | GI50 [4] | GI50 [5] | GI50 [6] | GI50 [7] | GI50 [8] [µM] | GI50 [9] | GI50 [10] | GI50 [11] | GI50 [12] | GI50 [13] | GI50 [14] | GI50 [15] | GI50 [16] | GI50 [17] | GI50 [18] | GI50 [19] | GI50 [20]
1 | O=c1cc(-c2ccc(O)c(O)c2)oc2cc(O[C@H]3O[C@H](CO)[C@@H](O)[C@H](O)[C@H]3O)cc(O)c12 | > 100 µM (inactive) | 70.1 µM (inactive) | > 100 µM (inactive) | 29.3 µM (inactive) | 35.6 µM (inactive) | 89.9 µM (inactive) | 41.3 µM (inactive) | 41.5 | 56.6 µM (inactive) | 81.7 µM (inactive) | > 100 µM (inactive) | 93.1 µM (inactive) | > 100 µM (inactive) | > 100 µM (inactive) | > 100 µM (inactive) | > 100 µM (inactive) | > 100 µM (inactive) | > 100 µM (inactive) | > 100 µM (inactive) | > 100 µM (inactive)
2 | CN(C)Cc1cc(O)c(O)c(CN(C)C)c1 | 31.4 µM (inactive) | 29.4 µM (inactive) | 31.3 µM (inactive) | > 100 µM (inactive) | 36 µM (inactive) | 34.4 µM (inactive) | 30.3 µM (inactive) | 24.2 | 16.4 µM (inactive) | 36.7 µM (inactive) | 37.2 µM (inactive) | 29.5 µM (inactive) | 43.3 µM (inactive) | 46.3 µM (inactive) | 47 µM (inactive) | 22.7 µM (inactive) | 57.8 µM (inactive) | 17.3 µM (inactive) | 42.5 µM (inactive) | 32.4 µM (inactive)
3 | CCCCCC(=O)n1[nH]c(=O)n(-c2ccc(OC)cc2)c1=O | > 100 µM (inactive) | > 100 µM (inactive) | 63.1 µM (inactive) | > 100 µM (inactive) | > 100 µM (inactive) | > 100 µM (inactive) | 57.5 µM (inactive) | > 100 | > 100 µM (inactive) | > 100 µM (inactive) | > 100 µM (inactive) | > 100 µM (inactive) | > 100 µM (inactive) | > 100 µM (inactive) | > 100 µM (inactive) | > 100 µM (inactive) | > 100 µM (inactive) | > 100 µM (inactive) | > 100 µM (inactive) | > 100 µM (inactive)
4 | O=C(Nc1sccc1S(=O)(=O)c1ccccc1)c1ccccc1 | > 100 µM (inactive) | > 79.3 µM (inactive) | > 100 µM (inactive) | > 100 µM (inactive) | > 100 µM (inactive) | > 100 µM (inactive) | > 100 µM (inactive) | 7.16 | > 100 µM (inactive) | 99.5 µM (inactive) | > 70.5 µM (inactive) | > 100 µM (inactive) | > 100 µM (inactive) | > 100 µM (inactive) | > 100 µM (inactive) | > 100 µM (inactive) | 3.73 µM (inactive) | > 100 µM (inactive) | > 57.9 µM (inactive) | > 100 µM (inactive)
5 | COC(=O)CN1CCN(c2cccc3c2CCCC3)CC1 | 36.2 µM (inactive) | 23.2 µM (inactive) | 24.5 µM (inactive) | > 100 µM (inactive) | 43.5 µM (inactive) | > 100 µM (inactive) | 67.6 µM (inactive) | > 100 | 66.2 µM (inactive) | 19.9 µM (inactive) | > 100 µM (inactive) | > 100 µM (inactive) | 23.4 µM (inactive) | > 100 µM (inactive) | > 100 µM (inactive) | 19.4 µM (inactive) | > 100 µM (inactive) | 50.6 µM (inactive) | 52.8 µM (inactive) | 48.9 µM (inactive)
6 | CNC1NC(=O)c2ccccc2N1Cc1ccc(F)cc1 (stereo not given) | > 100 µM (inactive) | > 100 µM (inactive) | > 100 µM (inactive) | > 100 µM (inactive) | > 100 µM (inactive) | > 100 µM (inactive) | > 100 µM (inactive) | > 100 | > 100 µM (inactive) | > 100 µM (inactive) | > 100 µM (inactive) | > 100 µM (inactive) | > 100 µM (inactive) | > 100 µM (inactive) | > 100 µM (inactive) | > 100 µM (inactive) | > 100 µM (inactive) | > 100 µM (inactive) | > 100 µM (inactive) | > 100 µM (inactive)
7 | CC1=NN(c2ccccc2Cl)C2(C1)C(Cl)C(=O)N2c1nc2ccccc2s1 (stereo not given) | 31.8 µM (inactive) | 32.3 µM (inactive) | 92.5 µM (inactive) | > 100 µM (inactive) | 15.5 µM (inactive) | 50.2 µM (inactive) | 17.9 µM (inactive) | 44.3 | > 100 µM (inactive) | 17.3 µM (inactive) | 29.2 µM (inactive) | 44.6 µM (inactive) | 50.5 µM (inactive) | 42.1 µM (inactive) | 61.8 µM (inactive) | 52.4 µM (inactive) | 62.7 µM (inactive) | > 100 µM (inactive) | > 100 µM (inactive) | > 100 µM (inactive)
8 | COC(=O)c1cc(C)ccc1CC(Cc1ccc(C)cc1)C(=O)OC (stereo not given) | 25.7 µM (inactive) | 3.48 µM (inactive) | 22 µM (inactive) | 21.2 µM (inactive) | 19.1 µM (inactive) | 36.6 µM (inactive) | 7.06 µM (inactive) | 10.9 | 11.1 µM (inactive) | > 100 µM (inactive) | > 100 µM (inactive) | > 100 µM (inactive) | > 47.4 µM (inactive) | 72.4 µM (inactive) | 27.3 µM (inactive) | 20.9 µM (inactive) | 40.6 µM (inactive) | 9.89 µM (inactive) | 38.8 µM (inactive) | 9.86 µM (inactive)
9 | CN1C(=O)NC(=O)/C(=C\Nc2ncccn2)C1=O | > 100 µM (inactive) | > 100 µM (inactive) | > 100 µM (inactive) | > 100 µM (inactive) | > 100 µM (inactive) | > 100 µM (inactive) | > 100 µM (inactive) | > 100 | > 100 µM (inactive) | > 100 µM (inactive) | > 100 µM (inactive) | > 100 µM (inactive) | > 100 µM (inactive) | > 100 µM (inactive) | > 100 µM (inactive) | > 100 µM (inactive) | > 100 µM (inactive) | > 100 µM (inactive) | > 100 µM (inactive) | > 100 µM (inactive)
10 | CC1CN=C(Nc2cccc(F)c2)S1 (stereo not given) | > 100 µM (inactive) | > 100 µM (inactive) | > 100 µM (inactive) | > 100 µM (inactive) | > 100 µM (inactive) | > 100 µM (inactive) | > 100 µM (inactive) | > 100 | > 100 µM (inactive) | > 100 µM (inactive) | > 100 µM (inactive) | > 100 µM (inactive) | > 100 µM (inactive) | > 100 µM (inactive) | > 100 µM (inactive) | > 100 µM (inactive) | > 100 µM (inactive) | > 100 µM (inactive) | > 100 µM (inactive) | > 100 µM (inactive)
11 | CC1=C2NCN(C)N=C2C(C#N)(C#N)C1(C#N)C#N | 19.5 µM (inactive) | 27.4 µM (inactive) | 20.4 µM (inactive) | 32.6 µM (inactive) | 20.8 µM (inactive) | 5.97 µM (inactive) | 8.87 µM (inactive) | 21 | 26 µM (inactive) | 20.4 µM (inactive) | > 55.2 µM (inactive) | 20.8 µM (inactive) | > 50.7 µM (inactive) | 24.8 µM (inactive) | > 100 µM (inactive) | 23.8 µM (inactive) | 15.6 µM (inactive) | 17 µM (inactive) | 20 µM (inactive) | 33.5 µM (inactive)
12 | CCOc1cc(C(=O)O)c2c(ccc3ccc(OC)c(OC)c32)c1OC | > 100 µM (inactive) | > 100 µM (inactive) | > 100 µM (inactive) | > 100 µM (inactive) | > 100 µM (inactive) | > 100 µM (inactive) | > 100 µM (inactive) | > 100 | > 100 µM (inactive) | > 100 µM (inactive) | > 100 µM (inactive) | > 100 µM (inactive) | > 100 µM (inactive) | > 100 µM (inactive) | > 100 µM (inactive) | > 100 µM (inactive) | > 100 µM (inactive) | > 100 µM (inactive) | > 100 µM (inactive) | > 100 µM (inactive)
13 | Cc1ccccc1C(=N)c1ccccc1Cc1cccc2ccccc12 | 19.4 µM (inactive) | 17.9 µM (inactive) | 11.5 µM (inactive) | 4.63 µM (inactive) | 18.1 µM (inactive) | 31 µM (inactive) | 13.1 µM (inactive) | 18.7 | 29.4 µM (inactive) | 13.1 µM (inactive) | 19 µM (inactive) | 15.1 µM (inactive) | 17.1 µM (inactive) | 28.9 µM (inactive) | 19.2 µM (inactive) | 34.2 µM (inactive) | 22.2 µM (inactive) | 25.6 µM (inactive) | 28.4 µM (inactive) | 37.5 µM (inactive)
14 | COc1ccc(OC)c2c1C1CCC(=O)N1CN2C(C)=O (stereo not given) | > 100 µM (inactive) | > 100 µM (inactive) | > 100 µM (inactive) | > 100 µM (inactive) | > 100 µM (inactive) | > 100 µM (inactive) | > 100 µM (inactive) | > 100 | > 100 µM (inactive) | > 100 µM (inactive) | > 100 µM (inactive) | > 100 µM (inactive) | > 100 µM (inactive) | > 100 µM (inactive) | > 100 µM (inactive) | > 100 µM (inactive) | > 100 µM (inactive) | > 100 µM (inactive) | > 100 µM (inactive) | > 100 µM (inactive)
